Data published in US4436753A, “Method for therapy of ischemic disease” (Takeda Chemical Industries, Ltd., priority 1979, dated 1984).

Assays:
[1] = tested on: Spontaneously hypertensive rats; assay: Protecting effect against heart failure (drug-induced cardiac insufficiency), spontaneously hypertensive rats; format: in vivo, rat; conditions: administration period 10 days
[2] = tested on: SHRSP; assay: Improving effect on symptoms of cerebral apoplexy; format: in vivo, rat; conditions: 100 mg/kg/day oral, 21 days after first symptom
From the text: SHRSP's were fed under sodium chloride loading as in Example 3. Upon manifestation of the first symptom, the sodium chloride loading was discontinued and at the same time oral administration of the compound of the invention (I, n=10) was commenced. After administration for 3 weeks, the dosed group was compared with the control group in respect of the severity of the symptoms. The severity was scored (0 for no symptoms to 5 for the severest) for each individual and the results were expressed in terms of the total score for the respective group. As shown by the results set forth in Table 4, the administration of the compound of the present invention alleviated the clinical symptoms after manifestation of the apoplexy. The body weight loss after the apoplexy was also depressed.

[3] = tested on: bovine heart mitochondria deactivated by treatment with acetone (succinate oxidase activity); assay: Mitochondrial respiration activating effect (succinate oxidase oxygen consumption); format: biochemical; conditions: 5 n mole added; 23° C.; succinate substrate; acetone-treated mitochondria
Description: The effect of activating the respiration of bovine heart mitochondria deactivated by treatment with acetone was evaluated by the method of Lester and Fleischer (Biochim. Biophys. Acta, vol. 113, p. 519, 1966). The respiration activating effect was expressed in terms of oxygen consumption due to succinate oxidase activity, succinic acid being the substrate.
*The rate was measured at 23° C. using an oxygen electrode
apparatus (Gilson's model KIC). Composition of the reaction medium (2 ml)
0.2 M sucrose, 10 mM Trishydrochloric acid (pH 7.4), 20 mM KCl, 3 mM
MgCl2, 50 μM EDTA.2Na, 1.99 mg (as protein) acetonetreated
mitochondria, 50 μM potassium succinate, 0.2 mg cytochrome C, and 5
μl 1% Nikkol OP10 ® (polyoxyethylene octylphenyl ether; Produced b
Nikko Chemicals) solution of the test sample (in the case of the test
sample) or 5 μl 1% Nikkol OP10 ® (Polyoxyethylene octylphenyl
ether; Produced by Nikko Chemicals) (in the case of the control).

[4] = tested on: SHRSP; assay: Cerebral ischemia-protecting effect, carotid artery ligated on both sides; format: in vivo, rat
From the text: Spontaneously hypertensive rats showing a strong tendency to cerebral apoplexy (hereinafter abbreviated to SHRSP) (Okamoto et al., Circulation Res., vol. 34-35, pp. 1-143, 1974), were newly established in 1974. When the carotid artery is ligated on both sides, apoplectic symptoms such as convulsion fit, respiratory distress and coma, which lead to death (the incidence being 100%), are observed.
The time to the manifestation of the symptoms and the time to death were prolonged also by the administration of 100 mg/kg for 3 days or 35 mg/kg for 14 days.

[5] = tested on: SHRSP; assay: Antihypertensive action; format: in vivo, rat; conditions: 35 mg/kg daily oral
From the text: | ^1 Each group consisted of 12 animals.

[6] = tested on: normal rat; assay: Preventing effect against development of malignant hypertension (unilateral kidney excision, desoxycorticosterone acetate, 1% sodium chloride); format: in vivo; conditions: 50 mg/kg oral twice a day
Description: The kidney of each normal rat was unilaterally excised, and desoxycorticosterone acetate (10 mg/kg) was administered subcutaneously once a week. The rats were given a 1% aqueous sodium chloride solution as drinking water. On the day of operation and thereafter, the compound of the invention (I, n=10) was orally administered at a dose of 50 mg/kg twice a day, and the above indexes of aggravation were determined.

[7] = tested on: SHRSP; assay: Cerebral apoplexy preventing effect; format: in vivo, rat
Description: The SHRSP, fed with high sodium chloride level, are liable to develop cerebral apoplexy (cerebral hemorrhage or hemorrhagic infarction) with high incidence. The compound of the invention (I, n=10) was administered in admixture with the diet to a group of 12 male SHRSP.
^1 8week-old male SHRSP
^2 14week-old male SHRSP
^3 Number of apoplectic cases/number of animals used.

[8] = 2-week oral repeated dose toxicity (Reference Example 8); format: in vivo; conditions: gum arabic suspension, 100 mg/kg or 500 mg/kg daily for 2 weeks
Description: The compound of the present invention (I, n=10) was suspended in a gum arabic solution and oraly administered consecutively for 2 weeks at a daily dose of 100 mg/kg or 500 mg/kg, and examination of general condition, urinalysis and blood examination were carried out during the course of administration. Histopathology was done at the termination of the administration.

[9] = tested on: normal rats; assay: Protecting effect against heart failure (Adriamycin-induced), normal rats; format: in vivo, rat; conditions: Adriamycin 1 mg/kg/day i.p., compound 10 mg/kg/day oral, 10 days
Description: Adriamycin (1 mg/kg/day) was intraperitoneally administered to normal rats and, after 2 weeks, the compound of the invention (I, n=10) (10 mg/kg/day) was orally administered, and the cardiac functional state was examined electrocardiographically and biochemically. […] In addition, the tissue lactic acid level, an index of myocardinal energy state, was lowered.

[10] = Experiment 2, 100 mg/kg/day, 3 days
[11] = Experiment 3, 35 mg/kg/day, 14 days

In the case of COC1=C(OC)C(=O)C(CCCCCCCCCCO)=C(C)C1=O [I (n = 10), 2,3-dimethoxy-5-methyl-6-(10-hydroxydecyl)-1,4-benzoquinone], the “Heart lactic acid on wet weight basis” value [1] is reported as 1.9 ± 0.12 µmol/g, the QRS width [1] is reported as 2.9 ± 0.2 ms and the Body weight loss [2] is reported as 8 ± 3%. The “Severity of symptoms (total score of group; 0 to 5 per individual)” value [2] was 20 ± 3, the Oxygen consumption rate [3] was 45.0 ± 3.7 Oxygen (n atom)/minute/mg prot and the “Time to convulsion fit” value ([4]; Experiment 1, 15 mg/kg/day oral, 21 days) was 119 ± 13 min. For the same molecule, the “Time to convulsion fit” value [4, 10] was 117 ± 15 min, the Time to death [4, 10] was 235 ± 27 min and the “Time to convulsion fit” value [4, 11] was 93 ± 14 min. For the same molecule, the Time to death [4, 11] was 242 ± 29 min, the Blood pressure ([5]; day 0) was 175 ± 3 mmHg and the Blood pressure ([5]; day 7) was 188 ± 4 mmHg. The Blood pressure ([5]; day 14) was 199 ± 3 mmHg, the Blood pressure ([5]; day 21) was 208 ± 4 mmHg and the Body weight ([6]; day 0) was 224 ± 4 g. The Urine protein ([6]; day 0) was 47 ± 1 mg/day/250 g body weight, the Body weight ([6]; day 14) was 269 ± 8 g and the Urine protein ([6]; day 14) was 225 ± 38 mg/day/250 g body weight. For the same molecule, the Body weight ([6]; day 21) was 274 ± 13 g, the Urine protein ([6]; day 21) was 367 ± 68 mg/day/250 g body weight and the “Spontaneous manifestation of cerebral apoplexy (in words)” value ([7]; 10 SHRSP fed without sodium chloride loading) was “can prevent manifestation of cerebral apoplexy”. For the same molecule, the “Incidence of cerebral apoplexy (number of apoplectic cases/number of animals used)” value ([7]; Experiment 1, sodium chloride loading +, 35 mg/kg/day in diet, 40 days, 8-week-old male SHRSP) was 7/12, the “Incidence of cerebral apoplexy (number of apoplectic cases/number of animals used)” value ([7]; Experiment 2, no sodium chloride loading, 35 mg/kg/day, 45 days, 14-week-old male SHRSP) was 5/10 and the “Cerebral apoplexy compared with the control group (in words)” value ([7]; SHRSP fed with high sodium chloride level, compound in admixture with the diet, 12 male SHRSP) was “significantly (P<0.05 by Wilcoxon's two sample test) inhibited”. The “Abnormalities (general condition, urinalysis, blood examination, histopathology)” value [8] was “could not reveal any abnormalities ascribable to the administration”, the “Heart lactic acid on wet weight basis” value [9] was 1.65 ± 0.1 µmol/g and the QRS width [9] was 4.6 ± 0.4 ms.
With COC1=C(OC)C(=O)C(CCCCCCCCCCCCCCCCCCO)=C(C)C1=O [I (n = 18), 6-(18-hydroxyoctadecyl)-2,3-dimethoxy-5-methyl-1,4-benzoquinone] the Oxygen consumption rate [3] was 44.5 ± 3.2 Oxygen (n atom)/minute/mg prot.
